Measured values: PMC5509375, “Oxidative stress induced in E. coli by the human antimicrobial peptide LL-37” (PLoS Pathogens, 2017)
≈ marks a conversion by molar mass, not a printed value. Where two headings read alike, the source gives them in different places. Ends that are not written are not given here.

Legend:
[1] = tested on: E. coli MG1655; assay: MIC assay, broth microdilution, aerobic growth; type: cell-based; details: E. coli MG1655, EZRDM, 30°C, 6 hr, two-fold serial dilutions, reproducible to the same factor of two
Experimental: (§1) We have measured MICs in aerobic and anaerobic fermentation conditions using a series of two-fold dilutions for the four natural AMPs in the same rich, chemically defined EZRDM medium at 30°C (Table 1). The MIC in anaerobic fermentation conditions is 4-fold higher for LL-37 and 8-fold higher for melittin. […] For cecropin A and for indolicidin, the MIC is the same in aerobic and fermentation conditions. Evidently the activity against E. coli of some, but not all, natural AMPs is enhanced by the presence of oxygen. For LL-37, the primary focus of this study, we also measured the MIC in conditions enabling anaerobic respiration (no oxygen, but supplemented with 10 mM KNO3; Table 2).
The aerobic MIC values for the various AMPs (Table 1) were determined using the broth microdilution method as previously described. Two-fold serial dilutions of LL-37 in 1× EZRDM were performed in separate rows of a polystyrene 96-well plate, with each plate containing an inoculum of E. coli MG1655. The inoculum was a 1:20 dilution from a bulk culture at midlog phase (OD600 = 0.5) grown at 30°C. The plate was incubated at 30°C and shaken at 200 rpm in a Lab-Line Orbital Environ Shaker (model 3527) for 6 hr. The MIC value was taken as the lowest concentration for which no growth was discernible (<0.05 OD) after 6 hr.

[2] = tested on: E. coli MG1655; assay: MIC assay, anaerobic fermentation (oxygen scavenged with PCA/PCD); type: cell-based; details: E. coli MG1655, EZRDM, 30°C, 6 hr, PCA 10 mM / PCD 100 nM
Experimental: as §1
Anaerobic MIC values (Table 1) were measured on a 96-well plate that was sealed with plastic wrap. Cells were incubated in EZRDM containing protocatechuic acid (PCA) at 10 mM and protocatechuate 3,4-dioxygenase (PCD) at 100 nM to scavenge oxygen. The plate was incubated at 30°C for 6 hr, followed by OD measurements.

[3] = tested on: E. coli MG1655; details: cited from earlier work
Experimental: Table 1 Antimicrobial peptides and their MICs for E. coli MG1655 in aerobic growth vs anaerobic fermentation in EZRDM at 30°C. | column: MIC (μM) ^1 / Aerobic || Additional evidence that the onset of strong CellROX* fluorescence coincides with entry of LL-37 into the periplasm comes from two-color imaging experiments using CellROX Green and a red fluorescent variant of the peptide, Rh-LL-37. […] Under aerobic growth conditions, at t = 0 we flowed 25 μM CellROX Green plus 8 μM Rh-LL-37 across plated E. coli cells. As before, wea ... || To test for the importance of LL-37 stereochemistry on the magnitude of oxidative effects, we repeated the CellROX* assay in aerobic conditions using 4 μM of the all-D stereoisomer of LL-37. […] In addition, our earlier work found the same MIC for D- and L-LL-37 [19].

[4] = tested on: E. coli MG1655; set-up: method as in 2 sources, one per row (each row's own in cited_ref): ref 20 = [20]; PMID 25561551; doi:10.1073/pnas.1417703112; 20 Choi H , Yang Z , Weisshaar JC . Single-cell, real-time detection of oxidative stress induced in Escherichia coli by the antimicrobial peptide CM15 . Proc Natl Acad Sci U S A . 2015; 112 ( 3 ): E3 ||| ref 22 = [22]; PMID 26493221; doi:10.1021/acschembio.5b00547; 22 Choi H , Chakraborty S , Liu R , Gellman SH , Weisshaar JC . Single-Cell, Time-Resolved Antimicrobial Effects of a Highly Cationic, Random Nylon-3 Copolymer on Live Escherichia coli . ACS Chem Biol; details: cited from earlier work
[5] = tested on: MG1655 E. coli; type: cell-based; details: 8 μM Rh-LL-37 + 25 μM CellROX Green, aerobic, 59 cells from three repeats

For `CC[C@H](C)[C@H](N)C(=O)N[C@@H](CC(C)C)C(=O)N1CCC[C@H]1C(=O)N[C@@H](Cc1c[nH]c2ccccc12)C(=O)N[C@@H](CCCCN)C(=O)N[C@@H](Cc1c[nH]c2ccccc12)C(=O)N1CCC[C@H]1C(=O)N[C@@H](Cc1c[nH]c2ccccc12)C(=O)N[C@@H](Cc1c[nH]c2ccccc12)C(=O)N1CCC[C@H]1C(=O)N[C@@H](Cc1c[nH]c2ccccc12)C(=O)N[C@@H](CCCNC(=N)N)C(=O)N[C@@H](CCCNC(=N)N)C(N)=O` [Indolicidin], the “MIC (μM) Aerobic” value [1] was 32 µM (≈ 61 µg/mL) and the “MIC (μM) Fermentation” value [2] was 32 µM (≈ 61 µg/mL).

In the case of CM15, the “MIC (μM) Aerobic” value ([3]; E. coli MG1655, EZRDM, 30°C, aerobic, CM15 from earlier study) is given as 5 µM, the “MIC (μM) Fermentation” value ([4]; E. coli MG1655, EZRDM, 30°C, anaerobic fermentation, CM15 from earlier study) is given as 100 µM and the “MIC in anaerobic (fermentation) relative to aerobic growth” value ([4]; E. coli, fold higher in anaerobic) is given as 20 fold.

With “KWKLFKKIEKVGQNIRDGIIKAGPAVAVVGQATQIAK-NH2 [Cecropin A]” the “MIC (μM) Aerobic” value [1] was 0.9 µM and the “MIC (μM) Fermentation” value [2] was 0.9 µM.

In the case of Rhodamine B-LL-37 [Rh-LL-37], the “Timing of CellROX* fluorescence relative to periplasmic Rh-LL-37 fluorescence” value [5] is listed as “rise on the same time scale” and the “MIC compared with unlabeled L-LL-37” value ([3]; MG1655 E. coli) is listed as “the same MIC”.
